BigSolDB 2.1

Cc1ccc(CO)cc1
solubility (mole fraction)
Settings | 278.15 K | 283.15 K | 288.15 K | 293.15 K | 298.15 K | 303.15 K | 308.15 K | 313.15 K
in 1,2-dichloroethane | 0.166 | 0.214 | 0.28 | 0.343 | 0.418 | 0.506 | 0.585 | 0.685
in acetone | 0.226 | 0.272 | 0.321 | 0.384 | 0.431 | 0.497 | 0.568 | 0.642
in acetonitrile | 0.162 | 0.214 | 0.287 | 0.361 | 0.454 | 0.548 | 0.638 | 0.735
in dichloromethane | 0.4 | 0.429 | 0.466 | 0.502 | 0.537 | 0.588 | 0.646 | 0.729
in ethanol | 0.236 | 0.276 | 0.327 | 0.379 | 0.44 | 0.508 | 0.581 | 0.662
in ethyl acetate | 0.215 | 0.259 | 0.308 | 0.369 | 0.433 | 0.511 | 0.587 | 0.671
in ethyl formate | 0.152 | 0.191 | 0.242 | 0.303 | 0.372 | 0.449 | 0.537 | 0.62
in isobutanol | 0.231 | 0.275 | 0.321 | 0.373 | 0.446 | 0.513 | 0.594 | 0.667
in isopropanol | 0.248 | 0.283 | 0.33 | 0.386 | 0.448 | 0.527 | 0.597 | 0.674
in n-butanol | 0.252 | 0.287 | 0.334 | 0.385 | 0.45 | 0.51 | 0.584 | 0.698
in n-propanol | 0.253 | 0.293 | 0.34 | 0.398 | 0.454 | 0.518 | 0.595 | 0.674
